In the NIST ThermoML archive (doi:10.1021/acs.jced.6b00026):

Experiment: xn = mol fraction of the nth substance listed
Conditions: Fluid (supercritical or subcritical phases), Buoyancy - hydrostatic balance with magnetic suspension - one sinker

CCCCCCCCCCC [undecane] + O=C=O
Conditions	mass density [kg/m3]
313.18 K, 8001 kPa, x2 = 0.6797	776.08
313.18 K, 13999 kPa, x2 = 0.2483	745.92
313.18 K, 16002 kPa, x2 = 0.6797	808.24
313.18 K, 18070 kPa, x2 = 0.8874	825.37
313.18 K, 18977 kPa, x2 = 0.2483	749.97
313.19 K, 16008 kPa, x2 = 0.2483	747.58
313.19 K, 19014 kPa, x2 = 0.6797	817.41
313.2 K, 10002 kPa, x2 = 0.6797	785.54
313.2 K, 12013 kPa, x2 = 0.2483	744.22
313.21 K, 8004 kPa, x2 = 0.2483	740.68
313.21 K, 10007 kPa, x2 = 0.2483	742.45
313.21 K, 12003 kPa, x2 = 0.6797	793.85
313.21 K, 13997 kPa, x2 = 0.6797	801.3
313.21 K, 18002 kPa, x2 = 0.2483	749.16
313.22 K, 19000 kPa, x2 = 0.4641	772.52
313.23 K, 16004 kPa, x2 = 0.4641	769.05
313.23 K, 17996 kPa, x2 = 0.4641	771.37
313.24 K, 10003 kPa, x2 = 0.4641	761.59
313.24 K, 12000 kPa, x2 = 0.4641	764.15
313.24 K, 18003 kPa, x2 = 0.6797	814.33
313.25 K, 7997 kPa, x2 = 0.4641	758.91
313.26 K, 10039 kPa, x2 = 0.8874	773.99
313.26 K, 11990 kPa, x2 = 0.8874	789.91
313.26 K, 14074 kPa, x2 = 0.8874	803.72
313.27 K, 16066 kPa, x2 = 0.8874	815
313.27 K, 19015 kPa, x2 = 0.8874	829.45
313.29 K, 14002 kPa, x2 = 0.4641	766.59
323.11 K, 18008 kPa, x2 = 0.6797	792.77
323.14 K, 11997 kPa, x2 = 0.2483	736.47
323.15 K, 16006 kPa, x2 = 0.4641	758.48
323.17 K, 7997 kPa, x2 = 0.4641	747.66
323.17 K, 14005 kPa, x2 = 0.4641	755.92
323.17 K, 19002 kPa, x2 = 0.6797	795.98
323.19 K, 9992 kPa, x2 = 0.6797	757.97
323.2 K, 9999 kPa, x2 = 0.2483	734.59
323.2 K, 11998 kPa, x2 = 0.6797	768.5
323.2 K, 16011 kPa, x2 = 0.2483	739.99
323.2 K, 18000 kPa, x2 = 0.2483	741.72
323.23 K, 14011 kPa, x2 = 0.2483	738.22
323.23 K, 19001 kPa, x2 = 0.2483	742.54
323.25 K, 16042 kPa, x2 = 0.6797	785.42
323.25 K, 19040 kPa, x2 = 0.8874	798.97
323.26 K, 10008 kPa, x2 = 0.4641	750.42
323.26 K, 12004 kPa, x2 = 0.4641	753.18
323.26 K, 19006 kPa, x2 = 0.4641	762.09
323.27 K, 8000 kPa, x2 = 0.2483	732.65
323.27 K, 18003 kPa, x2 = 0.4641	760.86
323.3 K, 14004 kPa, x2 = 0.6797	777.17
323.31 K, 13971 kPa, x2 = 0.8874	764.29
323.31 K, 18051 kPa, x2 = 0.8874	793.06
323.32 K, 11984 kPa, x2 = 0.8874	745.06
323.32 K, 16015 kPa, x2 = 0.8874	779.89
333.05 K, 15991 kPa, x2 = 0.2483	732.43
333.06 K, 8008 kPa, x2 = 0.2483	724.69
333.06 K, 18013 kPa, x2 = 0.2483	734.27
333.07 K, 18027 kPa, x2 = 0.6797	770.02
333.07 K, 19007 kPa, x2 = 0.2483	735.15
333.09 K, 18042 kPa, x2 = 0.8874	758.98
333.11 K, 12010 kPa, x2 = 0.8874	701.45
333.14 K, 10000 kPa, x2 = 0.2483	726.64
333.14 K, 11987 kPa, x2 = 0.6797	745.9
333.14 K, 18003 kPa, x2 = 0.4641	751.23
333.14 K, 19000 kPa, x2 = 0.6797	773.23
333.16 K, 10004 kPa, x2 = 0.4641	739.87
333.16 K, 11998 kPa, x2 = 0.4641	742.85
333.16 K, 12018 kPa, x2 = 0.2483	728.6
333.16 K, 16006 kPa, x2 = 0.4641	748.54
333.16 K, 19039 kPa, x2 = 0.8874	765.91
333.17 K, 8004 kPa, x2 = 0.4641	736.7
333.17 K, 13998 kPa, x2 = 0.6797	754.83
333.17 K, 14005 kPa, x2 = 0.8874	721.01
333.17 K, 14013 kPa, x2 = 0.2483	730.5
333.19 K, 13997 kPa, x2 = 0.4641	745.71
333.19 K, 16015 kPa, x2 = 0.8874	741.91
333.21 K, 19000 kPa, x2 = 0.4641	752.46
333.23 K, 16000 kPa, x2 = 0.6797	762.53
343.19 K, 12000 kPa, x2 = 0.2483	720.79
343.2 K, 14004 kPa, x2 = 0.2483	722.81
343.2 K, 17005 kPa, x2 = 0.2483	725.76
343.21 K, 11985 kPa, x2 = 0.6797	729.1
343.24 K, 10010 kPa, x2 = 0.2483	718.69
343.25 K, 13002 kPa, x2 = 0.6797	731.82
343.25 K, 16001 kPa, x2 = 0.4641	738.42
343.26 K, 14997 kPa, x2 = 0.2483	723.76
343.26 K, 17011 kPa, x2 = 0.4641	739.9
343.27 K, 13999 kPa, x2 = 0.6797	736.08
343.27 K, 14997 kPa, x2 = 0.4641	736.9
343.27 K, 17005 kPa, x2 = 0.6797	747.33
343.28 K, 14027 kPa, x2 = 0.8874	673.56
343.28 K, 14995 kPa, x2 = 0.6797	739.94
343.28 K, 15997 kPa, x2 = 0.6797	743.79
343.28 K, 18018 kPa, x2 = 0.6797	750.83
343.3 K, 11002 kPa, x2 = 0.2483	719.69
343.3 K, 11003 kPa, x2 = 0.4641	730.57
343.3 K, 12002 kPa, x2 = 0.4641	732.18
343.3 K, 16007 kPa, x2 = 0.2483	724.72
343.3 K, 18033 kPa, x2 = 0.8874	723.56
343.31 K, 8003 kPa, x2 = 0.4641	725.39
343.31 K, 13003 kPa, x2 = 0.4641	733.77
343.32 K, 7999 kPa, x2 = 0.2483	716.46
343.32 K, 17016 kPa, x2 = 0.8874	713.66
343.32 K, 19002 kPa, x2 = 0.4641	742.71
343.34 K, 9998 kPa, x2 = 0.4641	728.83
343.34 K, 16020 kPa, x2 = 0.8874	702.38
343.34 K, 19012 kPa, x2 = 0.2483	727.57
343.35 K, 15016 kPa, x2 = 0.8874	689.29
343.35 K, 17999 kPa, x2 = 0.4641	741.25
343.37 K, 19004 kPa, x2 = 0.8874	731.75
343.37 K, 19021 kPa, x2 = 0.6797	753.8
343.39 K, 13010 kPa, x2 = 0.2483	721.68
343.4 K, 18008 kPa, x2 = 0.2483	726.58
343.41 K, 14002 kPa, x2 = 0.4641	735.22
353.08 K, 11003 kPa, x2 = 0.2483	711.86
353.09 K, 11995 kPa, x2 = 0.4641	721.32
353.12 K, 10003 kPa, x2 = 0.2483	710.71
353.13 K, 13017 kPa, x2 = 0.2483	714.01
353.13 K, 17994 kPa, x2 = 0.4641	731.12
353.14 K, 16002 kPa, x2 = 0.2483	717.14
353.19 K, 14997 kPa, x2 = 0.4641	726.33
353.23 K, 14005 kPa, x2 = 0.4641	724.68
353.31 K, 8017 kPa, x2 = 0.4641	712.03
353.31 K, 16999 kPa, x2 = 0.2483	718.15
353.33 K, 9996 kPa, x2 = 0.4641	717.59
353.33 K, 18011 kPa, x2 = 0.2483	719.15
353.34 K, 14014 kPa, x2 = 0.2483	715.02
353.34 K, 16078 kPa, x2 = 0.6797	710.53
353.35 K, 14995 kPa, x2 = 0.2483	716.05
353.38 K, 19001 kPa, x2 = 0.4641	732.5
353.39 K, 13004 kPa, x2 = 0.4641	722.88
353.4 K, 7998 kPa, x2 = 0.2483	708.29
353.4 K, 16003 kPa, x2 = 0.4641	727.85
353.4 K, 19017 kPa, x2 = 0.2483	720.08
353.41 K, 11004 kPa, x2 = 0.4641	719.34
353.42 K, 17964 kPa, x2 = 0.6797	722.19
353.43 K, 12003 kPa, x2 = 0.2483	712.78
353.43 K, 15953 kPa, x2 = 0.8874	651.24
353.43 K, 18953 kPa, x2 = 0.8874	692.79
353.43 K, 19052 kPa, x2 = 0.8874	691.56
353.44 K, 15006 kPa, x2 = 0.6797	702.5
353.44 K, 16998 kPa, x2 = 0.4641	729.38
353.44 K, 17006 kPa, x2 = 0.6797	716.04
353.44 K, 19016 kPa, x2 = 0.6797	727.96
353.45 K, 17976 kPa, x2 = 0.8874	681.1
353.46 K, 16003 kPa, x2 = 0.8874	649.3
353.46 K, 17018 kPa, x2 = 0.8874	665.72
353.52 K, 17018 kPa, x2 = 0.8874	668.1
353.52 K, 18000 kPa, x2 = 0.8874	678.79
